Data on 15 compounds can be found in ChEMBL document CHEMBL1125543, “Urea and 2-imidazolidone derivatives of the muscarinic agents oxotremorine and N-methyl-N-(1-methyl-4-pyrrolidino-2-butynyl)acetamide” (J Med Chem, 1992).

Where only a bound is given, the exact number is not on record here.

Assay [1] addresses T1, Muscarinic acetylcholine receptor M3 (Cavia porcellus, UniProt Q8VH26). The assay can be described thus: Muscarinic acetylcholine receptor M3 agonistic/antagonistic activity in guinea pig ileum. It counts as functional, tissue-based.
In assay [2] the target is Muscarinic acetylcholine receptor M3 (Cavia porcellus) (UniProt Q8VH26). As to the kind of experiment: Maximum contractile response relative to carbachol (E max) in guinea pig ileum as muscarinic acetylcholine receptor M3 agonistic/antagonistic activity. It counts as functional, tissue-based.
For assay [3] the target is unchanged. The assay can be described thus: Relative efficacies determined with oxotremorine as the reference in guinea pig ileum, as a measure of muscarinic acetylcholine receptor M3 agonistic activity. It counts as functional, tissue-based.
The target of assay [4] is Muscarinic acetylcholine receptor. As to the kind of experiment: Displacement of [3H]3-quinuclidinyl benzilate ([3H]-QNB) from muscarinic acetylcholine receptor of rat cerebral cortex. The format is tissue-based.
Assay [5] deals with T1, Muscarinic acetylcholine receptor M3. The assay can be described thus: Dissociation constant for complex with muscarinic acetylcholine receptor M3 of guinea pig ileum. It counts as tissue-based.

Sequence of Muscarinic acetylcholine receptor M3 (Cavia porcellus) (Q8VH26 1-587): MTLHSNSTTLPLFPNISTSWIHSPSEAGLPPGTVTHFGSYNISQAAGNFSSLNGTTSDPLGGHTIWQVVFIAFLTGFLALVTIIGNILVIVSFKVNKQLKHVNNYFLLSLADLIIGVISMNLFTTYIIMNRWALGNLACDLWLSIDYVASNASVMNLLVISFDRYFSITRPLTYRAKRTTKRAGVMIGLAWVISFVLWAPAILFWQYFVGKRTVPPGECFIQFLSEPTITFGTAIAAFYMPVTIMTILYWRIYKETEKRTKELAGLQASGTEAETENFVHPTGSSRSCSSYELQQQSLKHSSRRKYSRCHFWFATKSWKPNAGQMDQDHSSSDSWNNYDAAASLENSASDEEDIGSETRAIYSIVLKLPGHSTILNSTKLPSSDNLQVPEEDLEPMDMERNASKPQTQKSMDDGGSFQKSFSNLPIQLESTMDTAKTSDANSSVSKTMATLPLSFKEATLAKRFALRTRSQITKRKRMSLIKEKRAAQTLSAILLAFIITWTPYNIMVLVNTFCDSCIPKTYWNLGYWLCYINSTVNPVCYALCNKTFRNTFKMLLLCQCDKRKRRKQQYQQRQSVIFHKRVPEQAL
T1 sequence (Q8VH26 whole entry): as the sequence (Q8VH26 1-587) above

`CC(=O)N1CCN(CC#CCN2CCCC2)C1=O` yielded an EC50 in assay [1] above 300000 nM. Moreover, in assay [2], the Emax stood at 0. This compound registered an Efficacy in assay [3] of 0. In assay [4], the Ki is 27400 nM.
In assay [5], `CC(=O)N(C)C(C)C#CCN1CCCC1` (centres undefined) gave a Kd of 240 nM. The compound further gave an EC50 in assay [1] of 190 nM. The compound also registered an Emax in assay [2] of 0.83. The compound further had an Efficacy in assay [3] of 0.013.
Compound `CN(CC#CCN1CCCC1)C(N)=O` came in with a Kd in assay [5] of 49000 nM. Also, the EC50 in assay [1] was 44900 nM. The compound further registered an Emax in assay [2] of 0.57. The compound also returned an Efficacy in assay [3] of 0.08. The same compound had a Ki in assay [4] of 10700 nM.
For `O=CN1CCN(CC#CCN2CCCC2)C1=O`, in that order: 20900 nM, 8600 nM, 1, 0.14 and 26400 nM.
In assay [2], `C[N+](C)(C)CCOC(N)=O` registered an Emax of 1. Moreover, the Efficacy in assay [3] was determined as 5.71.
Turning to `O=C1CCCN1CC#CCN1CCCC1` [OXOTREMORINE], the Kd in assay [5] is 1200 nM. The same compound displayed an EC50 in assay [1] of 50 nM. This compound also gave an Emax in assay [2] of 1. This compound showed an Efficacy in assay [3] of 1. This compound also displayed a Ki in assay [4] of 230 nM.
On to `CN1CCN(CC#CCN2CCCC2)C1=O`, for which, in assay [5], the Kd was 2900 nM. The compound further registered an EC50 in assay [1] of 100 nM. The compound also showed an Emax in assay [2] of 1. The compound further registered an Efficacy in assay [3] of 0.21. In assay [4], the Ki turned out to be 1600 nM.
In assay [5], `CC(C#CCN1CCCC1)N1CCCC1=O` (centres undefined) gave a Kd of 91 nM. In assay [2], this compound yielded an Emax of 0. The compound further returned an Efficacy in assay [3] of 0. The Ki in assay [4] came out at 59 nM.
As to `CNC(=O)N(C)C(C)C#CCN1CCCC1` (centres undefined), in assay [5], binding was characterised by a dissociation constant (Kd) of 7500 nM. This compound came in with an EC50 in assay [1] of 2110 nM. The same compound returned an Emax in assay [2] of 1. Moreover, the Efficacy in assay [3] is 0.18. This compound gave a Ki in assay [4] of 4200 nM.
With `CC(C#CCN1CCCC1)N1CCNC1=O` (centres undefined), in assay [5], the Kd is 480 nM. In assay [2], this compound registered an Emax of 0. The compound also displayed an Efficacy in assay [3] of 0. The Ki in assay [4] is 640 nM.
In assay [5], `CC(C#CCN1CCCC1)N(C)C(N)=O` (centres undefined) showed a Kd of 710 nM. The compound also gave an Emax in assay [2] of 0. The compound also returned an Efficacy in assay [3] of 0. For the same compound, the Ki in assay [4] was 420 nM.
With `O=C1NCCN1CC#CCN1CCCC1`, the Kd in assay [5] is 30300 nM. This compound had an EC50 in assay [1] of 2670 nM. For the same compound, the Emax in assay [2] amounted to 1. In addition, in assay [3], the Efficacy was determined as 0.49. For the same compound, the Ki in assay [4] was 6500 nM.
In the same order, the values of `CNC(=O)N(C)CC#CCN1CCCC1` are 26400 nM, 2160 nM, 1, 0.53 and 15800 nM.
The compound `O=C1CNC(=O)N1CC#CCN1CCCC1` displayed a Kd in assay [5] of 100000 nM. The compound further yielded an EC50 in assay [1] of 46400 nM. In assay [2], the Emax is 0.37. The compound further displayed an Efficacy in assay [3] of 0.12. The same compound had a Ki in assay [4] of 17200 nM.
Take `CC1CCN(CC#CCN2CCCC2)C1=O` (centres undefined): binding in assay [5] was characterised by a dissociation constant (Kd) of 11500 nM. In assay [1], the EC50 was 500 nM.

The EC50 is the concentration needed to bring the measured effect to its halfway point. Low values mean a more potent agent, high ones a less potent agent. By Ki is commonly meant a dissociation constant, usually derived from enzyme kinetics or from competition with a known ligand. One may read the Kd as a measure of binding affinity in units of concentration. A high value points to lower affinity.
